# Results taken from US20190110476A1, “NOVEL ISOTHIAZOLAMIDES, PROCESSES FOR THEIR PREPARATION AND THEIR USE AS FUNGICIDES” (priority 2014, published 2019).
# Assay: Measurement of LogP values by HPLC on reversed phase columns (EEC directive 79/831 Annex V.A8)
# Assay type: physicochemical
# Settings: not given
# Method in brief: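 Following EEC directive 79/831 Annex V.A8, lipophilicity was derived from retention on reversed-phase HPLC columns. Separate values are given per diastereoisomer, and UV lambda-max (200–400 nm) was read at the peak signals.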
SMILES,LogP [a],LogP [b],LogP [c]
C[C@H](NC(=O)c1snc(N=C(c2ccccc2)c2ccccc2)c1Cl)C1CCCCC1 [II-003],5.93^[a],,
O=C(NCc1ccccc1Cl)c1snc(N=C(c2ccccc2)c2ccccc2)c1Cl [II-004],4.89^[a],,
O=C(NCC1CCCO1)c1snc(N=C(c2ccccc2)c2ccccc2)c1Cl (stereo not drawn) [II-005],3.83^[a],,
O=C(NCC1CCOCC1)c1snc(N=C(c2ccccc2)c2ccccc2)c1Cl [II-006],3.60^[a],,
O=C(NCC1CCCOC1)c1snc(N=C(c2ccccc2)c2ccccc2)c1Cl (stereo not drawn) [II-007],3.71^[a],,
O=C(NCC1CCCCO1)c1snc(N=C(c2ccccc2)c2ccccc2)c1Cl (stereo not drawn) [II-008],4.55^[a],,
C[C@H](NC(=O)c1snc(NS(=O)(=O)c2ccccc2)c1Cl)C1CCCCC1 [II-009],3.75^[a],,
COc1ccc(CNc2nsc(C(=O)NC(C)Cc3ccccc3Cl)c2Cl)cc1 (stereo not drawn) [II-010],4.33^[a],,
CC(Cc1ccccc1Cl)NC(=O)c1snc(N)c1Cl (stereo not drawn) [II-011],2.64^[a],,
O=C(NCc1ccccc1F)c1snc(N(S(=O)(=O)c2ccccc2)S(=O)(=O)c2ccccc2)c1Cl [II-012],4.15^[a],,
COc1ccc2c(c1)CCCN2C(=O)c1snc(N)c1Cl [II-017],2.11,2.06,
Nc1nsc(C(=O)N2CCCc3ccc(C(F)(F)F)cc32)c1Cl [II-018],2.78,2.71,
Nc1nsc(C(=O)N2CCc3cc(F)ccc3C2)c1Cl [II-019],2.09,2.05,
Nc1nsc(C(=O)N2CCc3ccccc3C2)c1Cl [II-020],2.02,1.98,
Cc1cccc2c1N(C(=O)c1snc(N)c1Cl)CCC2 [II-021],2.43,2.36,
Nc1nsc(C(=O)N2CCc3c(Cl)ccc(Cl)c3C2)c1Cl [II-022],2.88,2.82,
COc1ccc(CNc2nsc(C(=O)NC(C)Cc3ccc(Cl)cc3)c2Cl)cc1 (stereo not drawn) [II-023],4.32^[a],,
C[C@H](NC(=O)c1snc(N=CN2CCCC2)c1Cl)C1CCCCC1 [II-024],2.73^[a],,
C[C@H](NC(=O)c1snc(N=CN(C)C)c1Cl)C1CCCCC1 [II-025],3.13^[a],,
Nc1nsc(C(=O)N2CCCc3cc(Cl)ccc32)c1Cl [II-026],2.66,2.60,
CC(Cc1ccc(Cl)cc1)NC(=O)c1snc(N)c1Cl (stereo not drawn) [II-027],2.68^[a],,
Nc1nsc(C(=O)N2CCc3ccccc32)c1Cl [II-029],2.08,2.03,
O=C(NCc1ccc(Cl)cc1)c1snc(N=CN2CCCC2)c1Cl [II-030],2.17^[a],,
CN(C)C=Nc1nsc(C(=O)NCc2ccc(Cl)cc2)c1Cl [II-031],2.41^[a],,
CS(C)=Nc1nsc(C(=O)NCC2CCCCC2)c1Cl [II-032],1.82^[a],,
O=C(NCC1CCCCC1)c1snc(N=S2CCCC2)c1Cl [II-033],2.15^[a],,

SMILES,LogP [a],LogP [b],LogP [c]
O=C(NC1CCCC2CCCCC21)c1snc(N=CN2CCCC2)c1Cl (stereo not drawn) [II-036],3.52^[a],,
O=C(NC1CCCC2CCCCC21)c1snc(N=CN2CCCC2)c1Cl (stereo not drawn) [II-037],3.83^[a],,
CN(C)C=Nc1nsc(C(=O)NC2CCCC3CCCCC32)c1Cl (stereo not drawn) [II-038],3.94^[a],,
CS(C)=Nc1nsc(C(=O)NCc2ccc(F)cc2F)c1Cl [II-041],1.38^[a],,
O=C(NCc1ccc(F)cc1F)c1snc(N=S2CCCC2)c1Cl [II-042],1.64^[a],,
CS(C)=Nc1nsc(C(=O)NCc2c(F)cc(F)cc2F)c1Cl [II-043],1.42^[a],,
O=C(NCc1c(F)cc(F)cc1F)c1snc(N=S2CCCC2)c1Cl [II-044],1.66^[a],,
O=C(NCc1cc(F)c(F)c(F)c1)c1snc(N=S2CCCC2)c1Cl [II-045],1.96^[a],,
CS(C)=Nc1nsc(C(=O)NCc2cc(F)c(F)c(F)c2)c1Cl [II-046],1.68^[a],,
CS(C)=Nc1nsc(C(=O)NCc2ccc(F)c(F)c2F)c1Cl [II-047],1.57^[a],,
O=C(NCc1ccc(F)c(F)c1F)c1snc(N=S2CCCC2)c1Cl [II-048],1.83^[a],,
CS(C)(=O)=Nc1nsc(C(=O)NCC2CCCCC2)c1Cl [II-049],2.47^[a],,
Cc1ccc(S(C)=Nc2nsc(C(=O)NCC3CCCCC3)c2Cl)cc1 (stereo not drawn) [II-050],3.51^[a],,
CNS(=O)(=O)Nc1nsc(C(=O)NCC2CCCCC2)c1Cl [II-051],2.38^[a],,
CCS(CC)=Nc1nsc(C(=O)NCC2CCCCC2)c1Cl [II-052],2.00^[a],,
CS(C)=Nc1nsc(C(=O)NCC2CCCCC2)c1F [II-053],1.53^[a],,
Cc1ccc(S(C)=Nc2nsc(C(=O)NCC3CCCCC3)c2F)cc1 (stereo not drawn) [II-054],3.10^[a],,
O=C(NCC1CCCCC1)c1snc(N=S2CCCC2)c1F [II-055],1.72^[a],,
CS(C)=Nc1nsc(C(=O)NCc2ccc(F)cc2F)c1F [II-057],1.30^[a],,
Cc1ccc(S(C)=Nc2nsc(C(=O)NCc3ccc(F)cc3F)c2F)cc1 (stereo not drawn) [II-058],2.74^[a],,
O=C(NCc1ccc(F)cc1F)c1snc(N=S2CCCC2)c1F [II-059],1.57^[a],,
CS(C)=Nc1nsc(C(=O)NCC2CCCC2)c1F [II-061],0.32^[a],,
COc1ccc(CNc2nsc(C(=O)N3CCCc4ccc(C(F)(F)F)cc43)c2Cl)cc1 [II-062],4.37,4.25,
COc1ccc(CNc2nsc(C(=O)N3CCCc4cc(OC)ccc43)c2Cl)cc1 [II-063],3.72^[a],,
COc1ccc(CNc2nsc(C(=O)N3CCc4ccccc4C3)c2Cl)cc1 [II-064],3.68^[a],,
COc1ccc(CNc2nsc(C(=O)N3CCc4cc(F)ccc4C3)c2Cl)cc1 [II-065],3.73^[a],,

SMILES,LogP [a],LogP [b],LogP [c]
COc1ccc(CNc2nsc(C(=O)N3CCCc4cc(Cl)ccc43)c2Cl)cc1 [II-066],4.37^[a],,
COc1ccc(CNc2nsc(C(=O)N3CCCc4cccc(C)c43)c2Cl)cc1 [II-067],4.24,4.14,
COc1ccc(CNc2nsc(C(=O)N3CCc4c(Cl)ccc(Cl)c4C3)c2Cl)cc1 [II-068],4.66,4.55,
COc1ccc(CNc2nsc(C(=O)N3CCc4ccccc43)c2Cl)cc1 [II-069],3.83,3.76,
CS(C)=Nc1nsc(C(=O)NCC2CCCO2)c1F (stereo not drawn) [II-070],0.44^[a],,
CS(C)=Nc1nsc(C(=O)NCC2CCOC2)c1F (stereo not drawn) [II-071],0.26^[a],,
CS(C)=Nc1nsc(C(=O)NCc2cc(F)c(F)cc2F)c1F [II-072],1.43^[a],,
Cc1ccc(S(C)=Nc2nsc(C(=O)NCc3cc(F)c(F)cc3F)c2F)cc1 (stereo not drawn) [II-073],2.87^[a],,
O=C(NCc1cc(F)c(F)cc1F)c1snc(N=S2CCCC2)c1F [II-074],1.53^[a],,
CS(C)=Nc1nsc(C(=O)NCc2ccc(F)c(F)c2F)c1F [II-076],1.39^[a],,
Cc1ccc(S(C)=Nc2nsc(C(=O)NCc3ccc(F)c(F)c3F)c2F)cc1 (stereo not drawn) [II-077],2.73^[a],,
O=C(NCc1ccc(F)c(F)c1F)c1snc(N=S2CCCC2)c1F [II-078],1.55^[a],,
CS(C)=Nc1nsc(C(=O)NCc2c(F)cc(F)cc2F)c1F [II-079],1.40^[a],,
Cc1ccc(S(C)=Nc2nsc(C(=O)NCc3c(F)cc(F)cc3F)c2F)cc1 (stereo not drawn) [II-080],2.63^[a],,
O=C(NCc1c(F)cc(F)cc1F)c1snc(N=S2CCCC2)c1F [II-081],1.39^[a],,
O=C(NCCC1CCCCC1)c1snc(N=C(c2ccccc2)c2ccccc2)c1Cl [II-083],5.92^[a],,
O=C(NCC1CCCCC1)c1snc(N=S(Cc2ccccc2)Cc2ccccc2)c1Cl [II-084],4.38^[a],,
CS(Cc1ccccc1Cl)=Nc1nsc(C(=O)NCC2CCCCC2)c1Cl (stereo not drawn) [II-085],3.61^[a],,
CCCS(CC)=Nc1nsc(C(=O)NCC2CCCCC2)c1Cl (stereo not drawn) [II-086],,,1.90^[c]
O=C(NCC1CCCCC1)c1snc(N=S2CCCCC2)c1Cl [II-088],2.60^[a],,
CCCS(C)=Nc1nsc(C(=O)NCC2CCCCC2)c1Cl (stereo not drawn) [II-089],2.23^[a],,
O=C(NCC1CCCCC1)c1snc(N=S2CCOCC2)c1Cl [II-090],2.49^[a],,
CCS(C)=Nc1nsc(C(=O)NCC2CCCCC2)c1Cl (stereo not drawn) [II-091],1.94^[a],,
O=C(NCC1CCCCC1)c1snc(N=S(c2ccccc2)c2ccccc2)c1Cl [II-092],4.77^[a],,
CCCS(CC)=Nc1nsc(C(=O)NCC2CCCCC2)c1F (stereo not drawn) [II-093],2.07^[a],,

# Same assay, conditions: HPLC LC-UV, acidic range, 0.1% formic acid in water and acetonitrile as eluent
row,SMILES,chromatographic logP
1,"O=C(NCC1CCCCC1)c1snc(N=C(c2ccccc2)c2ccccc2)c1Cl [II-002, 4-chloro-N-(cyclohexylmethyl)-3-[(diphenylmethylene)amino]isothiazole-5-carboxamide]",5.65
